Measured values as given in patent US20120095030A1, “METHODS AND KITS TO PREDICT THERAPEUTIC OUTCOME OF TYROSINE KINASE INHIBITORS” (THE TRANSLATIONAL GENOMICS RESEARCH INSTITUTE, priority 2009, published 2012).
Read-outs that look alike come from different tables or passages of the source.

Legend:
Type in all cases: cell-based
H358 NSCLC cell line = assay: AlamarBlue proliferation assay, H358; conditions: Homo sapiens
Experimental: (§1) Cytotoxicity is measured using fluorescence spectrophotometry.
(§2) TKI sensitivity was determined in NSCLC cell lines. Vandetanib and sunitinib sensitivity was measured in seven NSCLC cell lines. Erlotinib sensitivity was measured in nine NSCLC cell lines. An AlamarBlue proliferation assay at 72 hours was used to measure TKI sensitivity. GraphPad Prism 4.01 was used to determine IC50 values. Expression of seven miRNAs was measured by qRT-PCR. qRT-PCR data were normalized to the reference RNU6 and fold changes were computed against the selected sensitive cell line for each drug. A two-sided z-test was used to compute the p-values for the fold changes. A score was calculated for each miRNA/drug combination to see whether a miRNA can determine resistance across cell lines. Fold changes were first ternarized and assigned a value of +1, −1, or 0. Elevated miRNA expression relative to control (fold change>1 AND p-value<0.05) was assigned a value of +1. Reduced miRNA expression relative to control (fold change<1 AND p-value<0.05) was assigned a value of −1. Any non-significant fold change (p-value>0.05) was assigned a value of 0. These values were then multiplied by a value of +1 or −1 as assigned by the resistance characteristics of the cell line: Resistant cell lines were assigned a value=+1. Sensitive cell lines were assigned a value=−1. The final score was computed by the sum of the points for the cells lines divided by the number of cell lines (the reference cell line was not used in computing the scores).

A549 NSCLC cell line = assay: AlamarBlue proliferation assay, A549; conditions: Homo sapiens
Experimental: as §1, §2

H520 NSCLC cell line = assay: AlamarBlue proliferation assay, H520; conditions: Homo sapiens
Experimental: as §1, §2

H460 NSCLC cell line = assay: AlamarBlue proliferation assay, H460; conditions: Homo sapiens
Experimental: as §1, §2

[1] = tested on: NSCLC cell lines classified as resistant; assay: AlamarBlue proliferation assay, NSCLC lines classified as resistant; conditions: read-out: IC50s of the remaining lines classified as resistant
Experimental: (§4) Cells in the log phase of expansion are harvested and counted. The cells are then adjusted to a density of 1×10^4 cells/ml, though the optimum cell density may vary between cell types. […] The AlamarBlue® reagent is mixed, and then aseptically added to the cells in an amount around 10% of the well volume. Cells are incubated in the presence of the reagent from 4-8 hours. Cytotoxicity is measured using fluorescence spectrophotometry. Absorbance is measured at 570 nm and 600 nm blanked in a plate containing medium only. To calculate the percent difference in reduction between treated and control cells in Percentage difference between treated and control cells
(§5) TKI sensitivity was determined in NSCLC cell lines. […] An AlamarBlue proliferation assay at 72 hours was used to measure TKI sensitivity. GraphPad Prism 4.01 was used to determine IC50 values.

HCC827 NSCLC cell line = assay: AlamarBlue proliferation assay, HCC827; conditions: Homo sapiens, 72 hours
Experimental: One method of measuring IC50 by AlamarBlue proliferation that may be used in determining an IC50 is as follows:
as §4, §5

H2122 NSCLC cell line = assay: AlamarBlue proliferation assay, H2122; conditions: Homo sapiens
Experimental: as §1, §2

H1703 NSCLC cell line = assay: AlamarBlue proliferation assay, H1703; conditions: Homo sapiens
Experimental: as §1, §2

[2] = tested on: H1703 Sunitinib resistant line A (H1703 SRa); assay: Alamar blue assay, H1703 SRa; conditions: Homo sapiens, NCI-H1703, read-out: Sunitinib IC50(μM), Example 3, mean of three experiments
Experimental: (§3) GraphPad Prism 4.01 was used to calculate IC50 values. […] GenoSensor GenoExplorer™ microRNA Expression System (Sanger miRNA Registry version 14 containing probes for 904 mature miRNAs and 450 pre-miRNAs) was used to screen miR expression. Differences in miRs expression between the parent and resistant cells were identified using at test with Benjamini-Hochberg correction and validated by qPCR. A score was calculated for each miRNA to determine whether a miRNA can predict SR.

[3] = tested on: H1703 Sunitinib resistant line B (H1703 SRb); assay: Alamar blue assay, H1703 SRb; conditions: Homo sapiens, NCI-H1703, read-out: Sunitinib IC50(μM), Example 3, mean of three experiments
Experimental: as §3

H2073 NSCLC cell line = assay: AlamarBlue proliferation assay, H2073; conditions: NCI-H2073, 72 hours
Experimental: as §1
as §2, with “The final score was computed by the sum of the points for the cells lines divided by the number of cell lines (the reference cell line was not used in computing the scores).” left out

HCC4006 NSCLC cell line = assay: AlamarBlue proliferation assay, HCC4006; conditions: Homo sapiens, 72 hours
Experimental: as §1
as §2, with “The final score was computed by the sum of the points for the cells lines divided by the number of cell lines (the reference cell line was not used in computing the scores).” left out

[4] = NCI-H358, H358, AlamarBlue proliferation, 72 hours, read-out: IC50
[5] = A549, AlamarBlue proliferation, 72 hours, read-out: IC50
[6] = NCI-H520, H520, AlamarBlue proliferation, 72 hours, read-out: IC50
[7] = NCI-H460, H460, AlamarBlue proliferation, 72 hours, read-out: IC50
[8] = range across resistant NSCLC lines, 72 hours
[9] = NCI-H2122, H2122, AlamarBlue proliferation, 72 hours, read-out: IC50
[10] = NCI-H1703, H1703, AlamarBlue proliferation, 72 hours, read-out: IC50

| Compound | IC50 (H358 NSCLC cell line; [4]) [µM] | IC50 (A549 NSCLC cell line; [5]) [µM] | IC50 (H520 NSCLC cell line; [6]) [µM] | IC50 (H460 NSCLC cell line; [7]) [µM] | IC50 [1, 8] [µM] | IC50 (HCC827 NSCLC cell line) [µM] | IC50 (H2122 NSCLC cell line; [9]) [µM] | IC50 (H1703 NSCLC cell line; [10]) [µM] | IC50 [2] [µM] | IC50 (H358 NSCLC cell line; NCI-H358, read-out: Sunitinib IC50(μM), H358, Example 3, mean of three experiments) [µM] | IC50 (A549 NSCLC cell line; read-out: Sunitinib IC50(μM), A549, Example 3, mean of three experiments) [µM] | IC50 (H520 NSCLC cell line; NCI-H520, read-out: Sunitinib IC50(μM), H520, Example 3, mean of three experiments) [µM] | IC50 [3] [µM] | IC50 (H460 NSCLC cell line; NCI-H460, read-out: Sunitinib IC50(μM), H460, Example 3, mean of three experiments) [µM] | IC50 (H2122 NSCLC cell line; NCI-H2122, read-out: Sunitinib IC50(μM), H2122, Example 3, mean of three experiments) [µM] | IC50 (H1703 NSCLC cell line; NCI-H1703, read-out: Sunitinib IC50(μM), H1703 control, Example 3, mean of three experiments) [µM] | IC50 (H2073 NSCLC cell line) [µM] | IC50 (HCC4006 NSCLC cell line) [µM] | IC50 ([1]; 72 h) [µM] |
| --- | --- | --- | --- | --- | --- | --- | --- | --- | --- | --- | --- | --- | --- | --- | --- | --- | --- | --- | --- |
| COc1cc2c(Nc3ccc(Br)cc3F)ncnc2cc1OCC1CCN(C)CC1 [Vandetanib] | 4.2 | 9.7 | 12.1 | 13.9 | 2.1 to 13.9 | 0.55 | 5.9 | 2.1 |  |  |  |  |  |  |  |  |  |  |  |
| CCN(CC)CCNC(=O)c1c(C)[nH]c(/C=C2\C(=O)Nc3ccc(F)cc32)c1C [Sunitinib, N-[2-(diethylamino)ethyl]-5-[(Z)-(5-fluoro-1,2-dihydro-2-oxo-3H-indol-3-ylidine)methyl]-2,4-dimethyl-1H-pyrrole-3-carboxamide] | 14.2 | 5.5 | 8.2 | 5.6 | 4.8 to 14.2 |  | 4.8 | 0.51 | 7.6 | 14.2 | 5.5 | 8.2 | 4.37 | 5.6 | 4.8 | 0.13 |  |  |  |
| C#Cc1cccc(Nc2ncnc3cc(OCCOC)c(OCCOC)cc23)c1 [Erlotinib, N-(3-ethynylphenyl)-6,7-bis(2-methoxyethoxy)quinazolin-4-amine] | 28.6 | > 50 | > 50 | 39.2 |  |  | 12.3 | > 50 |  |  |  |  |  |  |  |  | 9.7 | 0.02 | ≥ 9.7 |
